# Reference: patent US10111890B2, “9-aminomethyl minocycline compounds and uses thereof” (Paratek Pharmaceuticals, Inc., priority 2016, dated 2018)
# “And” between values parts separate entries of the source, which are not always exact repeats. Equal values may be shown once.
# Tests used:
# [1] = test system: ABSSSI known or suspected to be due to Gram-positive pathogens; experiment: Phase 3 oral omadacycline vs oral linezolid in ABSSSI: Investigator's Assessment of Clinical Response at PTE; format: in vivo, human; conditions: omadacycline minus linezolid, Wound Infection, mITT
# [2] = human, in vivo
# [3] = test system: ABSSSI known or suspected to be due to Gram-positive pathogens; experiment: Phase 3 oral omadacycline vs oral linezolid in ABSSSI: Early Clinical Response 48-72 hours after first dose; format: in vivo, human; conditions: for Early Clinical Success, %: micro-mITT, % of N1; for Difference (95% CI) in Early Clinical Success rate: omadacycline minus linezolid
# [4] = 48-72 hours after first dose, mITT population
# [5] = Cellulitis/erysipelas, actual type, 48-72 hours, mITT
# [6] = Cellulitis/erysipelas, as randomized, 48-72 hours, mITT
# [7] = Major Abscess, actual type, 48-72 hours, mITT
# [8] = Major Abscess, as randomized, 48-72 hours, mITT
# [9] = Wound Infection, actual type, 48-72 hours, mITT
# [10] = Wound Infection, as randomized, 48-72 hours, mITT
compound,measurement,setting,value
"CN(C)c1cc(CNCC(C)(C)C)c(O)c2c1C[C@H]1C[C@H]3[C@H](N(C)C)C(O)=C(C(N)=O)C(=O)[C@@]3(O)C(O)=C1C2=O [Omadacycline, 9-[(2,2-dimethyl-propylamino)-methyl]-minocycline]",Difference (95% CI) in Overall Clinical Success rate at PTE,[1]; actual type,"5.7 (−2.0, 13.4)"
same,Difference (95% CI) in Overall Clinical Success rate at PTE,[1]; as randomized,"6.1 (−1.6, 13.7)"
same,"discontinuation due to TEAE, % of subjects",[2],1.9%
same,"serious TEAEs, % of subjects",[2],3.4%
same,"treatment-emergent adverse events (TEAEs), % of subjects",[2],48.3%
same,"Difference (95% CI) in Early Clinical Success rate, omadacycline minus linezolid",[3]; [4],"5.0% and 5.0 (−0.2, 10.3) %"
same,Early Clinical Response: Clinical Failure,[3]; [4],26 (7.2) n (%)
same,Early Clinical Response: Clinical Failure or Indeterminate,[3]; [4],45 (12.5) n (%)
same,Early Clinical Response: Indeterminate,[3]; [4],19 (5.3) n (%)
same,Early Clinical Response: Clinical Success,"[3]; 48-72 hours after first dose, mITT population (N = 360 per arm)",315 (87.5) n (%)
same,Early Clinical Response: Clinical Success,"[3]; Cellulitis/erysipelas, actual type of infection, 48-72 hours, mITT",68 (79.1) n (%)
same,Early Clinical Response: Clinical Failure,[3]; [5],8 (9.3) n (%)
same,Early Clinical Response: Clinical Failure or Indeterminate,[3]; [5],18 (20.9) n (%)
same,Early Clinical Response: Indeterminate,[3]; [5],10 (11.6) n (%)
same,Early Clinical Response: Clinical Failure,[3]; [6],8 (9.8) n (%)
same,Early Clinical Response: Clinical Failure or Indeterminate,[3]; [6],17 (20.7) n (%)
same,Early Clinical Response: Indeterminate,[3]; [6],9 (11.0) n (%)
same,Early Clinical Response: Clinical Success,"[3]; Cellulitis/erysipelas, type of infection as randomized, 48-72 hours, mITT",65 (79.3) n (%)
same,Early Clinical Response: Clinical Success,"[3]; Major Abscess, actual type of infection, 48-72 hours, mITT",60 (93.8) n (%)
same,Early Clinical Response: Clinical Failure,[3]; [7],1 (1.6) n (%)
same,Early Clinical Response: Clinical Failure or Indeterminate,[3]; [7],4 (6.3) n (%)
same,Early Clinical Response: Indeterminate,[3]; [7],3 (4.7) n (%)
same,Early Clinical Response: Clinical Failure,[3]; [8],1 (1.6) n (%)
same,Early Clinical Response: Clinical Failure or Indeterminate,[3]; [8],4 (6.3) n (%)
same,Early Clinical Response: Indeterminate,[3]; [8],3 (4.7) n (%)
same,Early Clinical Response: Clinical Success,"[3]; Major Abscess, type of infection as randomized, 48-72 hours, mITT",60 (93.8) n (%)
same,Early Clinical Response: Clinical Success,"[3]; Wound Infection, actual type of infection, 48-72 hours, mITT",187 (89.0) n (%)
same,Early Clinical Response: Clinical Failure,[3]; [9],17 (8.1) n (%)
same,Early Clinical Response: Clinical Failure or Indeterminate,[3]; [9],23 (11.0) n (%)
same,Early Clinical Response: Indeterminate,[3]; [9],6 (2.9) n (%)
same,Early Clinical Response: Clinical Failure,[3]; [10],17 (7.9) n (%)
same,Early Clinical Response: Clinical Failure or Indeterminate,[3]; [10],24 (11.2) n (%)
same,Early Clinical Response: Indeterminate,[3]; [10],7 (3.3) n (%)
same,Early Clinical Response: Clinical Success,"[3]; Wound Infection, type of infection as randomized, 48-72 hours, mITT",190 (88.8) n (%)
same,"Early Clinical Success, %","[3]; baseline pathogen Clostridium perfringens, 48-72 hours after first dose",(100.0) %
same,"Early Clinical Success, %","[3]; baseline pathogen Enterobacter cloacae, 48-72 hours after first dose",(100.0) %
same,"Early Clinical Success, %","[3]; baseline pathogen Enterococcus faecalis VSE, 48-72 hours after first dose",(85.7) %
same,"Early Clinical Success, %","[3]; baseline pathogen Enterococcus faecalis, 48-72 hours after first dose",(87.5) %
same,"Early Clinical Success, %","[3]; baseline pathogen Enterococcus faecium VSE, 48-72 hours after first dose",(100.0) %
same,"Early Clinical Success, %","[3]; baseline pathogen Enterococcus faecium, 48-72 hours after first dose",(100.0) %
same,"Early Clinical Success, %","[3]; baseline pathogen Escherichia coli, 48-72 hours after first dose",(100.0) %
same,"Early Clinical Success, %","[3]; baseline pathogen Finegoldia magna, 48-72 hours after first dose",(66.7) %
same,"Early Clinical Success, %","[3]; baseline pathogen Klebsiella pneumoniae, 48-72 hours after first dose",(80.0) %
same,"Early Clinical Success, %","[3]; baseline pathogen MRSA, 48-72 hours after first dose",(93.3) %
same,"Early Clinical Success, %","[3]; baseline pathogen MSSA, 48-72 hours after first dose",(84.2) %
same,"Early Clinical Success, %","[3]; baseline pathogen Prevotella denticola, 48-72 hours after first dose",(100.0) %
same,"Early Clinical Success, %","[3]; baseline pathogen Prevotella melaninogenica, 48-72 hours after first dose",(100.0) %
same,"Early Clinical Success, %","[3]; baseline pathogen Staphylococcus aureus, 48-72 hours after first dose",(88.2) %
same,"Early Clinical Success, %","[3]; baseline pathogen Staphylococcus lugdunensis, 48-72 hours after first dose",(80.0) %
same,"Early Clinical Success, %","[3]; baseline pathogen Streptococcus agalactiae, 48-72 hours after first dose",(50.0) %
same,"Early Clinical Success, %","[3]; baseline pathogen Streptococcus anginosus group, 48-72 hours after first dose",(94.7) %
same,"Early Clinical Success, %","[3]; baseline pathogen Streptococcus anginosus, 48-72 hours after first dose",(100.0) %
same,"Early Clinical Success, %","[3]; baseline pathogen Streptococcus constellatus, 48-72 hours after first dose",(88.9) %
same,"Early Clinical Success, %","[3]; baseline pathogen Streptococcus intermedius, 48-72 hours after first dose",(91.3) %
same,"Early Clinical Success, %","[3]; baseline pathogen Streptococcus mitis, 48-72 hours after first dose",(100.0) %
same,"Early Clinical Success, %","[3]; baseline pathogen Streptococcus pyogenes, 48-72 hours after first dose",(82.8) %
same,"Early Clinical Success, %","[3]; baseline pathogen Streptococcus viridans group, 48-72 hours after first dose",(100.0) %
same,Difference (95% CI) in Early Clinical Success rate,"[3]; Cellulitis/erysipelas, actual type, mITT","1.7 (−10.8, 14.3)"
same,Difference (95% CI) in Early Clinical Success rate,"[3]; Cellulitis/erysipelas, as randomized, mITT","1.9 (−10.8, 14.5)"
same,Difference (95% CI) in Early Clinical Success rate,"[3]; Major Abscess, actual type, mITT","5.0 (−5.4, 16.2)"
same,Difference (95% CI) in Early Clinical Success rate,"[3]; Major Abscess, as randomized, mITT","5.0 (−5.4, 16.2)"
same,Difference (95% CI) in Early Clinical Success rate,"[3]; Wound Infection, actual type, mITT","6.3 (−0.3, 13.1)"
same,Difference (95% CI) in Early Clinical Success rate,"[3]; Wound Infection, as randomized, mITT","6.1 (−0.6, 12.8)"
